# Molecular target: T1, Xenopus laevis Aurora B/INCENP complex (Xenopus laevis, UniProt Q6DE08)
# T1 construct: equipped at the N-terminal position with a GST tag (amino acids 60-361); GST (N, cleaved yes); made in house; host or cells: E. coli BL21 (DE3)
# Experiment: Aurora-B kinase assay (radioactive enzyme inhibition assay)
# Type: biochemical
# Details: test substance at 1 μM; percentage of the positive control (maximum value without test substance)
# Source text: Example Aurora-B Kinase Assay
# A radioactive enzyme inhibition assay was developed using E. coli-expressed recombinant Xenopus laevis Aurora B wild-type protein equipped at the N-terminal position with a GST tag (amino acids 60-361) in a complex with Xenopus laevis INCENP (amino acids 790-847), which is obtained from bacteria and purified. In equivalent manner a Xenopus laevis Aurora B mutant (G96V) in a complex with Xenopus laevis INCENP^790-847 may also be used.
# Expression and Purification
# The coding sequence for Aurora-B^60-361 from Xenopus laevis is cloned into a modified version of pGEX-6T (Amersham Biotech) via BamHI and SalI cutting sites. The vector contains two cloning cassettes which are separated by a ribosomal binding site, allowing bi-cistronic expression. In this configuration Xenopus laevis Aurora B is expressed by the first cassette, and the Xenopus laevis INCENP^790-847 is expressed by the second cassette. The resulting vector is pAUB-IN^847.
# First of all the E. coli strain BL21 (DE3) is co-transformed with pUBS520 helper plasmid and pAUB-IN^847, after which protein expression is induced using 0.3 mM IPTG at an OD600 of 0.45-0.7. The expression is then continued for approx. 12-16 h at 23-25° C. with agitation.
# The bacteria are then removed by centrifuging and the pellet is lysed in lysis buffer (50 mM Tris/Cl pH 7.6, 300 mM NaCl, 1 mM DTT, 1 mM EDTA, 5% glycerol, Roche Complete Protease Inhibitor tablets) using ultrasound, using 20-30 mL lysis buffer per liter of E. coli culture. The lysed material is freed from debris by centrifugation (12000 rpm, 45-60 min, JA20 rotor). The supernatant is incubated with 300 μL of equilibrated GST Sepharose Fast Flow (Amersham Biosciences) per liter of E. coli culture for 4-5 h at 4° C. Then the column material is washed with 30 volumes of lysis buffer and then equilibrated with 30 volumes of cleavage buffer (50 mM Tris/Cl pH 7.6, 150 mM NaCl, 1 mM DTT, 1 mM EDTA). To cleave the GST tag from Aurora B, 10 units of Prescission Protease (Amersham Biosciences) are used per milligram of substrate and the mixture is incubated for 16 h at 4° C. The supernatant which contains the cleavage product is loaded onto a 6 mL Resource Q column (Amersham Biosciences) equilibrated with ion exchange buffer (50 mM Tris/Cl pH 7.6, 150 mM NaCl, 1 mM DTT, 1 mM EDTA). The Aurora B/INCENP complex is caught as it flows through, then concentrated and loaded onto a Superdex 200 size exclusion chromatography (SEC) column equilibrated with SEC buffer (10 mM Tris/Cl pH 7.6, 150 mM NaCl, 1 mM DTT, 1 mM EDTA). Fractions which contain the AuroraB/INCENP complex are collected and concentrated using Vivaspin concentrators (molecular weight exclusion 3000-5000 Da) to a final concentration of 12 mg/mL. Aliquots (e.g. 240 ng/μL) for kinase assays are transferred from this stock solution into freezing buffer (50 mM Tris/Cl pH 8.0, 150 mM NaCl, 0.1 mM EDTA, 0.03% Brij-35, 10% glycerol, 1 mM DTT) and stored at −80° C.
# Test substances are placed in a polypropylene dish (96 wells, Greiner #655 201), in order to cover a concentration frame of 10 μM-0.0001 μM. The final concentration of DMSO in the assay is 5%. 30 μL of protein mix (50 mM tris/Cl pH 7.5, 25 mM MgCl2, 25 mM NaCl, 167 μM ATP, 10 ng Xenopus laevis Aurora B/INCENP complex in freezing buffer) are pipetted into the 10 μl of test substance provided in 25% DMSO and this is incubated for 15 min at RT. Then 10 μL of peptide mix (100 mM tris/Cl pH 7.5, 50 mM MgCl2, 50 mM NaCl, 5 μM NaF, 5 μM DTT, 1 μCi gamma-P33-ATP [Amersham], 50 μM substrate peptide [biotin-[…] or multimers thereof, or biotin-[…] or multimers thereof, or biotin-[…]]) are added. The reaction is incubated for 75 min (ambient temperature) and stopped by the addition of 180 μL of 6.4% trichloroacetic acid and incubated for 20 min on ice. […]
# T1 sequence (Q6DE08 60-361): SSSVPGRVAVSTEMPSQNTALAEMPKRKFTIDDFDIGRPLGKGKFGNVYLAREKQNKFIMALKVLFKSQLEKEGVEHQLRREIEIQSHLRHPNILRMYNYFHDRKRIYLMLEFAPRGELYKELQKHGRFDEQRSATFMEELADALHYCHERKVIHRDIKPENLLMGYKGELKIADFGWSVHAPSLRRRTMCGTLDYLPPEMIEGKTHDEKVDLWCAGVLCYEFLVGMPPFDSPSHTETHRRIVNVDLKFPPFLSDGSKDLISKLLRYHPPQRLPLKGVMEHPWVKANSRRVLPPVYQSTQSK
# T1 sequence (O13024 790-847 partner limits assumed): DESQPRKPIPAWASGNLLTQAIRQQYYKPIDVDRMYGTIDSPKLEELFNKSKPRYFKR
row,remaining activity at 1 µM,SMILES
1,5.84%,CC(C)Nc1ccc(-c2ccc3c(c2)NC(=O)/C3=C(\Nc2ccc(C(=O)N3CCN(C4CC4)CC3)cc2)c2ccccc2)cn1 [Example 126]
2,4.67%,CC(C)Nc1ccc(-c2ccc3c(c2)NC(=O)/C3=C(\Nc2ccc(C(=O)N3CCC[C@H]3CN3CCCC3)cc2)c2ccccc2)cn1 [Example 127]
3,4.34%,CC(C)Nc1ccc(-c2ccc3c(c2)NC(=O)/C3=C(\Nc2ccc(C(=O)N3CCC(N(C)C)CC3)cc2)c2ccccc2)cn1 [Example 128]
4,4.55%,CC(C)Nc1ccc(-c2ccc3c(c2)NC(=O)/C3=C(\Nc2ccc(C(=O)N3CCN(C4CCOCC4)CC3)cc2)c2ccccc2)cn1 [Example 129]
5,1.43%,CC(C)Nc1ccc(-c2ccc3c(c2)NC(=O)/C3=C(\Nc2ccc(C(=O)N3CCC[C@@H]3CN3CCCC3)cc2)c2ccccc2)cn1 [Example 130]
6,5.48%,CC(C)Nc1ccc(-c2ccc3c(c2)NC(=O)/C3=C(\Nc2ccc(C(=O)N3C[C@H]4C[C@@H]3CN4C)cc2)c2ccccc2)cn1 [Example 131]
7,0.55%,CC(C)Nc1ccc(-c2ccc3c(c2)NC(=O)/C3=C(\Nc2ccc(C(=O)N3CCN[C@@H](C)C3)cc2)c2ccccc2)cn1 [Example 133]
8,1.43%,CC(C)Nc1ccc(-c2ccc3c(c2)NC(=O)/C3=C(\Nc2ccc(C(=O)NCCN(C)C)cc2)c2ccccc2)cn1 [Example 134]
9,0.77%,CC(C)Nc1ccc(-c2ccc3c(c2)NC(=O)/C3=C(\Nc2ccc(C(=O)N3CCN(C)CC3)cc2)c2ccccc2)cn1 [Example 135]
10,0.48%,CC(C)Nc1ccc(-c2ccc3c(c2)NC(=O)/C3=C(\Nc2ccc(C(=O)N3CC[C@H](N(C)C)C3)cc2)c2ccccc2)cn1 [Example 136]
11,0.67%,CC(C)Nc1ccc(-c2ccc3c(c2)NC(=O)/C3=C(\Nc2ccc(C(=O)N3CC[C@@H](N(C)C)C3)cc2)c2ccccc2)cn1 [Example 137]
12,0.68%,CC(C)Nc1ccc(-c2ccc3c(c2)NC(=O)/C3=C(\Nc2ccc(C(=O)N(C)CCN(C)C)cc2)c2ccccc2)cn1 [Example 138]
13,0.88%,CC(C)Nc1ccc(-c2ccc3c(c2)NC(=O)/C3=C(\Nc2ccc(C(=O)N(C)C3CCN(C)CC3)cc2)c2ccccc2)cn1 [Example 139]
14,2.26%,CC(C)Nc1ccc(-c2ccc3c(c2)NC(=O)/C3=C(\Nc2ccc(C(=O)NC3CCN(C)CC3)cc2)c2ccccc2)cn1 [Example 140]
15,1.89%,CNC(=O)C#Cc1cc2c(cc1S(=O)(=O)c1ccc(F)cc1)/C(=C(/Nc1ccc(CN(C)C)cc1)c1ccccc1)C(=O)N2 [Example 151]
16,4.33%,CCNC(=O)C#Cc1cc2c(cc1S(=O)(=O)N1CC(F)(F)C1)/C(=C(/Nc1ccc(N3CCN(C)CC3)cc1)c1ccccc1)C(=O)N2 [Example 152]
17,1.2%,CNCC#Cc1cc2c(cc1S(=O)(=O)N1CC(F)(F)C1)/C(=C(/Nc1ccccc1)c1ccccc1)C(=O)N2 [Example 153]
18,2.62%,CN1CCN(c2ccc(N/C(=C3\C(=O)Nc4cc(C#CC(=O)NC5CCC5)c(S(=O)(=O)N5CCC(F)(F)C5)cc43)c3ccccc3)cc2)CC1 [Example 154]
19,8.61%,CN(C)Cc1ccc(N/C(=C2\C(=O)Nc3cc(C#CC(=O)NC4CCC4)c(F)cc32)c2ccccc2)cc1 [Example 155]
20,3.02%,CC(C)NC(=O)C#Cc1cc2c(cc1S(=O)(=O)N1CC(F)(F)C1)/C(=C(/Nc1ccc(N3CCN(C)CC3)cc1)c1ccccc1)C(=O)N2 [Example 156]
21,1.98%,CNCC#Cc1cc2c(cc1S(=O)(=O)c1ccc(F)cc1)/C(=C(/Nc1ccccc1)c1ccccc1)C(=O)N2 [Example 157]

row,remaining activity at 1 µM,SMILES
1,7.53%,CNC(=O)C#Cc1cc2c(cc1F)/C(=C(/Nc1ccc(CN(C)C)cc1)c1ccccc1)C(=O)N2 [Example 158]
2,2.07%,CN(C)Cc1ccc(N/C(=C2\C(=O)Nc3cc(C#CC(=O)NC4CC4)ccc32)c2ccccc2)cc1 [Example 159]
3,1.39%,CCNC(=O)C#Cc1ccc2c(c1)NC(=O)/C2=C(\Nc1ccc(N2CCN(C)CC2)cc1)c1ccccc1 [Example 160]
4,1.69%,CN(C)Cc1ccc(N/C(=C2\C(=O)Nc3cc(C#CC(=O)Nc4ccccc4)ccc32)c2ccccc2)cc1 [Example 161]
5,1.65%,CCNC(=O)C#Cc1ccc2c(c1)NC(=O)/C2=C(\Nc1ccc(CN(C)C)cc1)c1ccccc1 [Example 162]
6,2.08%,CN(C)Cc1ccc(N/C(=C2\C(=O)Nc3cc(C#CC(=O)NC4CCCC4)ccc32)c2ccccc2)cc1 [Example 163]
7,3.17%,CN1CCN(c2ccc(N/C(=C3\C(=O)Nc4cc(C#CC(=O)NC5CCCC5)ccc43)c3ccccc3)cc2)CC1 [Example 164]
8,2.4%,CN(C)Cc1ccc(N/C(=C2\C(=O)Nc3cc(C#CC(=O)NC4CCC4)ccc32)c2ccccc2)cc1 [Example 165]
9,1.93%,CN(C)Cc1ccc(N/C(=C2\C(=O)Nc3cc(C#CC(=O)NCCO)ccc32)c2ccccc2)cc1 [Example 166]
10,2.96%,CN(C)Cc1ccc(N/C(=C2\C(=O)Nc3cc(C#CC(=O)NCC(F)F)ccc32)c2ccccc2)cc1 [Example 167]
11,1.85%,O=C(C#Cc1ccc2c(c1)NC(=O)/C2=C(\Nc1ccc(CN2CCCC2)cc1)c1ccccc1)NCC(F)F [Example 168]
12,1.71%,O=C(C#Cc1ccc2c(c1)NC(=O)/C2=C(\Nc1ccc(CN2CCCC2)cc1)c1ccccc1)NCCF [Example 169]
13,1.39%,O=C(C#Cc1ccc2c(c1)NC(=O)/C2=C(\Nc1ccc(CN2CCCC2)cc1)c1ccccc1)Nc1ccccc1F [Example 170]
14,3.39%,C[C@H](CO)NC(=O)C#Cc1ccc2c(c1)NC(=O)/C2=C(\Nc1ccc(CN(C)C)cc1)c1ccccc1 [Example 171]
15,3.21%,C[C@H](CO)NC(=O)C#Cc1ccc2c(c1)NC(=O)/C2=C(\Nc1ccc(CN2CCCC2)cc1)c1ccccc1 [Example 172]
16,3.68%,O=C(C#Cc1ccc2c(c1)NC(=O)/C2=C(\Nc1ccc(CN2CCCC2)cc1)c1ccccc1)Nc1cccc(Cl)c1 [Example 173]
17,2.67%,O=C(C#Cc1ccc2c(c1)NC(=O)/C2=C(\Nc1ccc(CN2CCCC2)cc1)c1ccccc1)Nc1ccccc1 [Example 174]
18,3.04%,CCNC(=O)C#Cc1ccc2c(c1)NC(=O)/C2=C(\Nc1ccc(CN2CCCC2)cc1)c1ccccc1 [Example 175]
19,1.65%,CCNC(=O)C#Cc1ccc2c(c1)NC(=O)/C2=C(\Nc1ccc(CN(C)C)c(F)c1)c1ccccc1 [Example 176]
20,1.83%,CCNC(=O)C#Cc1ccc2c(c1)NC(=O)/C2=C(\Nc1ccc(CN(C)C)c(Cl)c1)c1ccccc1 [Example 177]
